Source: patent US20110028471A1, “COMBINATION THERAPY 238” (ASTRAZENECA AB, priority 2008, published 2011)
Read-outs that look alike come from different tables or passages of the source.

Key:
A549 tumour xenografts = assay: A549 xenograft tumour growth, combination study; type: in vivo, mice; details: Compound A 20 mg/kg, AZD2171 3 mg/kg; for tumour growth inhibition: A549, female athymic mice, oral gavage once daily, 21 days, combination same doses, compared to control; for tumours smaller than at start of treatment: A549, individual tumour volumes at the end of the dosing period
Protocol: Human tumour xenografts were established in female athymic mice by injecting 5×10^6/0.1 ml A549a cells subcutaneously in the left hand side flank.
(§1) When mean tumour volume reached approximately 0.27 cm^3, the mice were randomized into control and treatment groups. […] The control group received both vehicles alone (same sequence as above), once daily by oral gavage. Tumor volumes (measured by calliper), animal body weight and tumor condition were recorded twice weekly for the duration of the study. Mice were humanely sacrificed by CO2 euthanasia. Tumour volumes were assessed using bilateral Vernier calliper measurement at least twice weekly and calculated using the formula (length×width)×√(length×width)×(π/6), where length was taken to be the longest diameter across the tumour and width the corresponding perpendicular. Growth inhibition from the start of treatment was assessed by comparison of the differences in tumor volume between control and treated groups. Because the variance in mean tumor volume data increases proportionally with volume (and is therefore disproportionate between groups), data were log-transformed to remove any size dependency before statistical evaluation. Statistical significance was evaluated using a one-tailed, two-sample t test. To analyze the data from the combination study, the statistical tool SigmaStat has been used. A two-way ANOVA test was performed using the factors concentration of drug A and concentration of drug B. The data analyzed was Log(final tumor volume)−Log(initial tumor volume) calculated for each individual animal at the end of the study. This tool is used to assess whether there is a main effect of drug A, a main effect of drug B plus a significant mechanistic interaction between the two compounds A and B (eg, one compound influences the effect of the other compound) which may be interpreted as antagonism, additivity or synergism. The statistical analysis was performed at the end of the dosing period (21 days).

Calu-6 tumour xenograft = Calu-6 tumour xenograft in vivo solid tumour model; details: once-daily oral, 28 days
cleaved caspase 3 [1] = assay: cleaved caspase 3 immunohistochemistry, A549 xenografts; type: in vivo, mice; details: A549 xenograft, 2 hours after 4 days of treatment; control 0.94%; Compound A 20 mg/kg, AZD2171 3 mg/kg
Protocol: Compound A was dosed two hours before AZD2171 (or vehicle). […] The levels of cleaved caspase 3 (percentage of positive nuclei) were determined in tumour xenografts by immunohistochemistry 2 hours after 4 days of treatment.

HUVEC = HUVEC assay, endothelial cell proliferation; type: cell-based; details: Homo sapiens
pS6 [2] = assay: pharmacodynamic study, pS6 in A549 xenograft tissue; type: in vivo, mice; details: 4 days of treatment, 2 hrs after last dosing, Compound A 20 mg/kg, AZD2171 3 mg/kg
Protocol: (§2) Compound A was dosed two hours before AZD2171 (or vehicle).

[3] = test system: Microvessel density (CD31 staining); assay: microvessel density by CD31 immunohistochemistry, A549 xenografts; type: in vivo, mice; details: A549 xenograft, 2 hours after 4 days of treatment; vehicle 26.6%; Compound A 20 mg/kg, AZD2171 3 mg/kg
Protocol: Microvessel density (MVD) was evaluated using CD31 staining by immunohistochemistry 2 hours after 4 days of treatment.

[4] = target: stem cell factor receptor tyrosine kinase (SCF RTK, commonly known as c-Kit) (Homo sapiens, UniProt P10721); assay: inhibition of c-Kit
stem cell factor receptor tyrosine kinase (SCF RTK, commonly known as c-Kit), sequence (P10721 26-976): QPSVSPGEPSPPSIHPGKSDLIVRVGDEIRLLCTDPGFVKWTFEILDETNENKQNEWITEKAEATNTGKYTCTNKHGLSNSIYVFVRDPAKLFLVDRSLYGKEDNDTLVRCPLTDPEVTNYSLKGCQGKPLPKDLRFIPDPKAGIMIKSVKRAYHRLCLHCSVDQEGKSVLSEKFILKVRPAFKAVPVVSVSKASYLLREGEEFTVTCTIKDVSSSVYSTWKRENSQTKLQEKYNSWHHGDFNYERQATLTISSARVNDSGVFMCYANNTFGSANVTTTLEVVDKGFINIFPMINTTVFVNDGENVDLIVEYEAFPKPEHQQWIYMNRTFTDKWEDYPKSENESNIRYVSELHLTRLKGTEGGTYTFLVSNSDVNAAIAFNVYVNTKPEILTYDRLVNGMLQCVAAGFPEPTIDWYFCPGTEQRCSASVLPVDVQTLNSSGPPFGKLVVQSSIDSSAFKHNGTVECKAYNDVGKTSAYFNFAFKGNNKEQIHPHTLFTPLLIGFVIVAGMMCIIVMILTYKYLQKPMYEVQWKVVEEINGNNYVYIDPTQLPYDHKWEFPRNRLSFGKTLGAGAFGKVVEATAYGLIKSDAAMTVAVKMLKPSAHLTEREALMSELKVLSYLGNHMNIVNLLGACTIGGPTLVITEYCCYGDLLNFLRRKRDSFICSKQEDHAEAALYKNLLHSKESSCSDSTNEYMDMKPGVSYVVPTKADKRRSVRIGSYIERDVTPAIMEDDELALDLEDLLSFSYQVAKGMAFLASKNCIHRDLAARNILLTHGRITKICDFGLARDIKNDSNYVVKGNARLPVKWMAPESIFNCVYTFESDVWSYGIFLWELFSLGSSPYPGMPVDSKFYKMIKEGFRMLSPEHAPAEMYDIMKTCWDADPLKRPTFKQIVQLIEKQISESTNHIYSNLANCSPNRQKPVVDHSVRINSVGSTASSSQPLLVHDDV

[5] = body weight loss in A549 study; type: in vivo, mice; details: Compound A 20 mg/kg, AZD2171 3 mg/kg, range in brackets
Protocol: as §1, with “To analyze the data from the combination study, the statistical tool SigmaStat has been used.” left out, “This tool is used to assess whether there is a main effect of drug A, a main effect of drug B plus a significant mechanistic interaction between the two compounds A and B (eg, one compound influences the effect of the other compound) which may be interpreted as antagonism, additivity or synergism. The statistical analysis was performed at the end of the dosing period (21 days).” left out

pAKT [6] = assay: pharmacodynamic study, pAKT in A549 xenograft tissue; type: in vivo, mice; details: 4 days of treatment, 2 hrs after last dosing, Compound A 20 mg/kg, AZD2171 3 mg/kg
Protocol: as §2
In the combination group, levels of pAKT were similar to those with Compound A to 58% (p<0.005) compared to control (FIG. 3).

NCI-H526 xenografts = assay: NCI-H526 xenograft tumour growth, combination study; type: in vivo; details: NCI-H526, nude mice, oral gavage; Compound A 20 mg/kg, AZD2171 3 mg/kg, combination same doses; compared with vehicle control
Protocol: Cells were grown in NCI-H526 (RPMI 10% FCS 1% Glutamine 10% Ml), and 1×10^7 cells were implanted into the flank of nude mice (NCI-H526 plus 50% matrigel).
When mean tumor size reached approx 0.2 cm^3, the mice were randomized into control and treatment groups. […] When administered in combination, COMPOUND A was given 2 hours […] the oral dose of the other compound. The control group received the (10% DMSO 90% propylene glycol) vehicle alone, once daily by oral gavage. Tumor volumes (measured by calliper), animal body weight and tumor condition were recorded twice weekly for the duration of the study. Mice were sacrificed by CO2 euthanasia. The tumor volume was calculated (taking length to be the longest diameter across the tumor and width to be the corresponding perpendicular diameter using the formula: (length×width)×√(length×width)×(π/6). Growth inhibition from the start of treatment was assessed by comparison of the differences in tumor volume between control and treated groups. Because the variance in mean tumor volume data increases proportionally with volume (and is therefore disproportionate between groups), data were log-transformed to remove any size dependency before statistical evaluation. Statistical significance was evaluated using a one-tailed, two-sample t test. To analyze the data from the combination study, the statistical tool SigmaStat has been used. […]

pAKT [7] = assay: pharmacodynamic study, pAKT in U87MG xenograft tissue; type: in vivo, mice; details: 4 days of treatment, 2 hrs after last dosing, Compound A 10 mg/kg, ZD6474 50 mg/kg
cleaved caspase 3 [8] = assay: cleaved caspase 3 immunohistochemistry, U87MG xenografts; type: in vivo, mice; details: U87MG xenograft, 2 hours after 4 days of treatment; control 0.46%; Compound A 10 mg/kg, ZD6474 50 mg/kg
Protocol: The levels of cleaved caspase 3 (percentage of positive nuclei) were determined in tumour xenografts by immunohistochemistry 2 hours after 4 days of treatment.

[9] = test system: Microvessel density (CD31 staining); assay: microvessel density by CD31 immunohistochemistry, U87MG xenografts; type: in vivo, mice; details: U87MG xenograft, 2 hours after 4 days of treatment; vehicle 59%; Compound A 10 mg/kg, ZD6474 50 mg/kg
Protocol: Microvessel density (MVD) was evaluated using CD31 staining by immuno-histochemistry 2 hours after 4 days of treatment. MVD values were 59% in vehicle-treated animals, reduced to 22% (p<0.05) after ZD6474, 50% (p=0.23) after Compound A, and 28% (p<0.05) after the combination (FIG. 8). There was no statistical interaction between compound A and ZD6474 in the combination-treated tumours (p=0.27).

pS6 [10] = assay: pharmacodynamic study, pS6 in U87MG xenograft tissue; details: 4 days of treatment, 2 hrs after last dosing, Compound A 10 mg/kg, ZD6474 50 mg/kg
U87MG xenografts = assay: U87MG xenograft tumour growth, combination study; type: in vivo; details: female athymic mice, oral gavage once daily, 7 days, Compound A 10 mg/kg/qd, ZD6474 50 mg/kg/qd, combination same doses, compared to control
Protocol: (§3) Human tumour xenografts were established in female athymic mice by injecting 2.3×10^6/0.1 ml U87MG cells subcutaneously in the left hand side flank. When mean tumour volume reached approximately 0.18 cm^3, the mice were randomized into control and treatment groups. The treatment groups received 50 mg/kg ZD6474 (vehicle 1% polysorbate 80 milled overnight) or 10 mg/kg COMPOUND A (30% captisol pH5) or a combination 50 mg/kg ZD6474 and 10 mg/kg COMPOUND A by oral gavage. When administered in combination, COMPOUND A was given 2 hours before the oral dose of ZD6474. The control group received both vehicles (same sequence as above), once daily by oral gavage. Tumor volumes (measured by calliper), animal body weight and tumor condition were recorded twice weekly for the duration of the study. Mice were humanely sacrificed by CO2 euthanasia. Tumour volumes were assessed using bilateral Vernier calliper measurement at least twice weekly and calculated using the formula (length×width)×√(length×width)×(π/6), where length was taken to be the longest diameter across the tumour and width the corresponding perpendicular. Growth inhibition from the start of treatment was assessed by comparison of the differences in tumor volume between control and treated groups. […] Statistical significance was evaluated using a one-tailed, two-sample t test. […]

[11] = body weight loss in U87MG study; type: in vivo, mice; details: Compound A 10 mg/kg, ZD6474 50 mg/kg, range in brackets
Protocol: as §3

Compound	tumour growth inhibition (A549 tumour xenografts) [%]	tumours smaller than at start of treatment (A549 tumour xenografts)	inhibition of growth of Calu-6 tumour xenograft (Calu-6 tumour xenograft; 1.5 mg/kg/day) [%]	inhibition of growth of Calu-6 tumour xenograft (Calu-6 tumour xenograft; 3 mg/kg/day) [%]	inhibition of growth of Calu-6 tumour xenograft (Calu-6 tumour xenograft; 6 mg/kg/day) [%]	CC3 values (percentage of positive nuclei) (cleaved caspase 3 [1]) [%]	IC50 (HUVEC; HUVEC assay, VEGF-stimulated, read-out: IC50, VEGF-stimulated endothelial cell proliferation) [pM]	IC50 (HUVEC; HUVEC, basal (no VEGF stimulation), read-out: IC50, basal endothelial cell proliferation) [pM]	levels of pS6 (normalised to total) compared to control (pS6 [2]) [%]	MVD values [3] [%]	inhibition of c-Kit [4]	maximum body weight loss [5] [%]	levels of pAKT (normalised to total) compared to control (pAKT [6]) [%]	reduction in geometric mean delta tumour volume (NCI-H526 xenografts) [%]	levels of pAKT (normalised to total) compared to control (pAKT [7]) [%]	CC3 values (percentage of positive nuclei) (cleaved caspase 3 [8]) [%]	MVD values [9] [%]	levels of pS6 (normalised to total) compared to control (pS6 [10]) [%]	tumour growth inhibition (U87MG xenografts) [%]	maximum body weight loss [11] [%]
COc1cc2c(Oc3ccc4[nH]c(C)cc4c3F)ncnc2cc1OCCCN1CCCC1 [AZD2171, 4-(4-fluoro-2-methyl-1H-indol-5-yloxy)-6-methoxy-7-(3-(pyrrolidin-1-yl)propoxy)quinazoline]	81.6	tumour volumes were greater than at start of the treatment	49	69	91	0.43	400 ± 200	> 500000	126	7.75	inhibits c-Kit	2.52	95	64	–	–	–	–	–	–
COc1cc2c(Nc3ccc(Br)cc3F)ncnc2cc1OCC1CCN(C)CC1 [ZD6474, 4-(4-bromo-2-fluoroanilino)-6-methoxy-7-(1-methylpiperidin-4-ylmethoxy)quinazoline]	–	–	–	–	–	–	–	–	–	–	–	–	–	–	87	0.73	22	108	−14.6	3.77
COc1ccc(-c2ccc3c(N4CCOC[C@@H]4C)nc(N4CCOC[C@@H]4C)nc3n2)cc1CO [Compound A, [5-[2,4-bis[(3S)-3-methylmorpholin-4-yl]pyrido[5,6-e]pyrimidin-7-yl]-2-methoxyphenyl]methanol]	99.3	4 out of 10	–	–	–	1.98	–	–	37	19.39	–	3.45	48	38	37	1.64	50	55	28.4	0.44
